Test system: Enterobacter agglomerans AJ13601 strain
Experiment: Growth inhibition by organic acid at acidic pH (main culture in jar fermenter)
Assay type: cell-based
Settings: for Growth inhibition: organic acid 0.5 g/L in main culture medium, pH 4.5, 34° C.
Method: Therefore, an experiment concerning the growth inhibition by an organic acid was performed at an acidic pH.
The Enterobacter agglomerans AJ13601 strain was cultured on LBG agar medium (10 g/L of trypton, 5 g/L of yeast extract, 10 g/L of NaCl and 15 g/L of agar) containing 25 mg/L of tetracycline hydrochloride and 25 mg/L of chloramphenicol at 30° C. for 14 hours, and one platinum loop of the cells were taken and inoculated into 300 mL of a seed culture medium having the following composition in a 1 L-volume jar fermenter to perform seed culture at 34° C. at pH 6.0.
50 g/L of sucrose, 0.4 g/L of magnesium sulfate heptahydrate, 4.0 g/L of ammonium sulfate, 2.0 g/L of monopotassium dihydrogenphosphate, 4.0 g/L of yeast extract, 0.01 g/L of ferrous sulfate heptahydrate, 0.01 g/L manganese sulfate pentahydrate, 0.4 g/L of L-lysine hydrochloride, 0.4 g/L of DL-methionine, 0.4 g/L of DL-α,ε-diaminopimelic acid, 25 mg/L of tetracycline hydrochloride and 25 mg/L of chloramphenicol
pH was controlled by adding ammonia gas during the culture. The seed culture was terminated by observing depletion of the saccharide in the seed culture medium as a marker, and the seed culture broth was inoculated into 300 mL of a main culture medium contained in 1 L-volume jar fermenters in an amount of 20% of the volume of the main culture medium to perform the main culture. The composition of the main culture medium is shown below. When an experiment for the growth inhibition by an organic acid is performed, the experiment was performed by adding the organic acid at a predetermined concentration.
20 g/L of glucose, 0.4 g/L of magnesium sulfate heptahydrate, 5.0 g/L of ammonium sulfate, 6.0 g/L of monopotassium dihydrogenphosphate, 1.5 g/L of sodium chloride, 0.01 g/L of ferrous sulfate heptahydrate, 0.01 g/L of manganese sulfate pentahydrate, 0.8 g/L of L-lysine hydrochloride, 0.6 g/L of DL-methionine, 0.6 g/L of DL-α,ε-diaminopimelic acid, 25 mg/L of tetracycline hydrochloride, 25 mg/L of chloramphenicol, 6.0 g/L of yeast extract and 0.75 g/L of calcium chloride dihydrate
The culture temperature was adjusted to 34° C., and pH was controlled to a predetermined pH by adding ammonia gas.
Experiments for the growth inhibition effect at an acidic pH (pH 4.5) were first performed with various organic acids.

## CC(=O)O [Acetic acid]
  Growth inhibition: Observed
Listed as acetic acid
  Growth inhibition: evident growth inhibition

## O=CO [Formic acid]
Formic acid 0.5 g/L, pH 4.5 (FIG. 11)
  growth of cells: hardly observed
Formic acid concentration 0.5 g/L, inhibition observed at lower pH (FIG. 11)
  pH region in which growth inhibition by formic acid was not observed: ≥ 5.5
  Growth inhibition: Observed
Listed as formic acid
  Growth inhibition: evident growth inhibition
pH 4.5 (FIG. 12)
  formic acid concentration in the medium at which growth inhibition was not observed: ≤ 0.20 g/L

## CC(O)C(=O)O (stereo not drawn) [Lactic acid]
  Growth inhibition: Not observed
Listed as lactic acid
  Growth inhibition: growth rate comparable to that obtained with the control medium

## CCC(=O)O [Propionic acid]
  Growth inhibition: Observed
Listed as propionic acid
  Growth inhibition: evident growth inhibition

## O=C(O)CCC(=O)O [Succinic acid]
  Growth inhibition: Not observed
Listed as succinic acid
  Growth inhibition: did not show growth inhibition

## O=C(O)/C=C/C(=O)O [fumaric acid]
  Growth inhibition: did not show growth inhibition

## O=C(O)CC(O)C(=O)O (stereo not drawn) [malic acid]
  Growth inhibition: did not show growth inhibition

Reference: patent US6653110B2 (Ajinomoto Co., Inc., priority 2001, dated 2003)
